Laboratory results: patent publication US10813939B2, “Bromodomain inhibitor as adjuvant in cancer immunotherapy” (H. LEE MOFFITT CANCER CENTER AND RESEARCH INSTITUTE, INC., priority 2014, dated 2020)
Entries after “also recorded” stand apart in the source; their conditions may differ.

What was measured:
Assay type in all cases: cell-based
PEM = PEM cell viability after 24 hours JQ1
Procedure: In order to determine the best working concentration of JQ1 in PEM, plated PEM (96-well plate) were treated with increased concentration of JQ1 for 24 hours then cell viability was determined. A threshold of 100 to 800 nanomolar was determined to be acceptable.

IL-10 [1] = test: IL-10 production by ELISA in PEM treated with JQ1 with and without LPS; conditions: PEM (PEM or bone marrow derived DCs), 24 hours, supernatant ELISA
Procedure: (§1) Macrophages (PEM) were treated with different concentrations of JQ1 in presence and absence of LPS (stimulant for macrophages). After 24 hours, supernatant was collected and IL -10 & IL-6 production was determined by ELISA.

IL-6 [2] = test: IL-6 production by ELISA in PEM treated with JQ1 with and without LPS; conditions: PEM (PEM or bone marrow derived DCs), 24 hours, supernatant ELISA
Procedure: as §1

IL-10 [3] = test: IL-10 mRNA expression by real time PCR in PEM; conditions: PEM or DCs, increasing JQ1, LPS stimulation
IL-6 [4] = test: IL-6 mRNA expression by real time PCR in PEM; conditions: PEM or DCs, increasing JQ1, LPS stimulation
PD-L1 [5] = test: Flow cytometry of PEM with anti-PD-L1; conditions: JQ1 & LPS versus LPS alone, treated versus untreated APCs
Procedure: (§2) PEM were treated with different concentrations of JQ1 in presence and absence of LPS. Flow cytometry was performed on PEM treated with different concentrations of JQ1 in presence and absence of LPS using anti-PD-Ll and anti-PD-L2 as well as isotype as a control.

PD-L2 = test: Flow cytometry of PEM with anti-PD-L2; conditions: JQ1 & LPS versus LPS alone
Procedure: as §2

PD-L1 [6] = test: PD-L1 mRNA expression by real time PCR in PEM; conditions: LPS+JQ1 combination
Naïve CD4 T-cells = test: JQ1-treated PEM co-cultured with naive CD4 T-cells and OVA peptide, cytokine ELISA; conditions: PEM treated 24 hours, co-culture 48 hours with OVA peptide
Procedure: (§3) PEM were treated with different concentrations of JQ1 in presence and absence of LPS. After 24 hours, PEM was washed twice with warm RPMI. Naïve CD4 T-cells or tolerant T-cells were added to the plated macrophages with or without OVA peptide and co-cultured for 48 hours. IL-2 and IFN-γ production were determined by ELISA. Without OVA peptide, there was no production of IL-2 or IFN-γ.

tolerant CD4+ T-cells = test: JQ1-treated PEM co-cultured with tolerant T-cells and OVA peptide, IFN-γ ELISA; conditions: PEM treated with JQ1+LPS 24 hours, co-culture 48 hours with OVA peptide, tolerant CD4+ T-cells from lymphoma bearing hosts
Procedure: as §3

**Q.** With `Cc1sc2c(c1C)C(c1ccc(Cl)cc1)=N[C@@H](CC(=O)OC(C)(C)C)c1nnc(C)n1-2` [JQ1, (S)-tert-butyl 2-(4-(4-chlorophenyl)-2,3,9-trimethyl-6H-thieno[3,2-f][1,2,4]triazolo[4,3-a][1,4]diazepin-6-yl)acetate] as the compound, how does the “acceptable working concentration threshold (cell viability)” value (PEM; PEM, 96-well plate, 24 hours) read?
**A.** The value was 100 to 800 nM.

**Q.** What about the “viability of treated APCs” value (PEM; at the concentration used (FIG. 1)) of the same compound?
**A.** Its value is “did not affect the viability”.

**Q.** What about the IL-10 production (IL-10 [1]) of the same compound?
**A.** The IL-10 production was “decreased production”.

**Q.** And the IL-10 production (IL-10 [1]; listed as JQ 1)?
**A.** The IL-10 production was “decreased expression and protein production”.

**Q.** And the IL-6 production (IL-6 [2])?
**A.** The IL-6 production was “decreased production”.

**Q.** What about the IL-6 production (IL-6 [2]; listed as JQ 1) of the same compound?
**A.** Its IL-6 production is “decreased expression and protein production”.

**Q.** And the “IL-10 expression (mRNA)” value (IL-10 [3])?
**A.** Its value is “decreased expression”.

**Q.** And the “IL-6 expression (mRNA)” value (IL-6 [4])?
**A.** The value was “decreased expression”.

**Q.** What about the “PD-L1 expression (flow cytometry)” value (PD-L1 [5]) of the same compound?
**A.** The value was “relatively decreased expression”.

**Q.** And the “PD-L1 expression (flow cytometry)” value (PD-L1 [5]; listed as JQ 1)?
**A.** Its value is “decreased expression; also recorded: lower expression”.

**Q.** And the “PD-L2 expression (flow cytometry)” value (PD-L2)?
**A.** The value was “relatively decreased expression”.

**Q.** What about the “PDL1 mRNA expression” value (PD-L1 [6]) of the same compound?
**A.** Its value is “decreased expression”.

**Q.** What about the “IFN-gamma production by CD4 T-cell” value (Naïve CD4 T-cells) of the same compound?
**A.** Its value is “increase in dose dependent production”.

**Q.** What about the “IL-2 production by CD4 T-cell” value (Naïve CD4 T-cells) of the same compound?
**A.** The value was “increase in dose dependent production”.

**Q.** And the “IFN-gamma production by CD4 T-cell” value (Naïve CD4 T-cells; listed as JQ 1)?
**A.** The value was “increased production”.

**Q.** What about the “IL-2 production by CD4 T-cell” value (Naïve CD4 T-cells; listed as JQ 1) of the same compound?
**A.** The value was “increased production”.

**Q.** What about the “IFN-gamma production by tolerant T-cells / responsiveness of tolerant T-cells” value (tolerant CD4+ T-cells) of the same compound?
**A.** Its value is “enhanced IFN-gamma production; also recorded: restoration of tolerant T-cell function”.

**Q.** What about the “IFN-gamma production by tolerant T-cells / responsiveness of tolerant T-cells” value (tolerant CD4+ T-cells; listed as JQ 1) of the same compound?
**A.** Its value is “able to restore the responsiveness; also recorded: capable of restoring the responsiveness”.
